# Measurements reported in patent US7276519B2, “Thieno[3,2-b]pyridine-6-carbonitriles and thieno[2,3-b]pyridine-5-carbonitriles as protein kinase inhibitors” (Wyeth, priority 2002, dated 2007).
# “And” between values parts separate entries of the source, which are not always exact repeats. Identical values can stand only once.
# Columns and labels:
# [1] = target: T1, Raf-1 (c-Raf) / GST-MEK1 (Raf and/or Mek kinase); experiment: Raf/Mek kinase cascade assay; format: biochemical, human; conditions: Table 4; read-out: Raf/MEK enzyme IC50
# T1 construct: Sf9 insect cell lysate containing full length 6his-tagged recombinant human c-Raf; fused on or other part: 6His tag on c-Raf; GST on MEK1
# Method: Raf/Mek Kinase Cascade Assay
# (Specific Activity: ˜200 U/ml). Human Non-active Mek-1-GST and human GST-MAP kinase recombinant proteins produced in E. coli).
# Stock Solutions Raf/Mek Cascade Assay:
# • 1. Assay Dilution Buffer (ADB): 20 mM MOPS, pH 7.2, 25 mM β-glycerol phosphate, 5 mM EGTA, 1 mM sodium orthovanadate, 1 mM dithiothreitol. • 2. Magnesium/ATP Cocktail: 500 μM cold ATP and 75 mM magnesium chloride in ADB. • 3. Active Kinase: Human Active c-Raf: Use at 0.4 U per assay point. • 4. Non-active GST-MEK1: Use at 0.1 μg per assay point. • 5. Non-active GST-p42 MAP Kinase: Use at 1.0 μg per assay point. Stock Solutions ELISA: • 1. TBST—Tris (50 mM, pH 7.5), NaCl (150 mM), Tween-20 (0.05%) • 2. Superblock (Pierce) • 3. Anti-GST Ab (Pharmacia) • 4. Anti-Phospho MAPK (Sigma) • 5. Anti-Mouse Ab/Europium conjugate (Wallac) Assay Procedure: First Stage: c-Raf Dependent Activation of GST-MEK and GST-MAPK • 1. Add […] of ADB per assay (i.e. per well of a 96 well plate) • 2. Add […] of 0.5 mM cold ATP and 75 mM magnesium chloride in ADB. • 3. Add 2 ml of c-Raf (0.4 U/assay), in conjunction with 1.6 ml non-active MEK1 ([…]). • 4. Add 4 ml of non-active GST-p42 MAP Kinase ([…]). • 5. Incubate for 60 minutes at 30° C. in a shaking incubator. • 6. Transfer this mixture to an anti-GST Ab coated 96 well plate (Nunc Immunosorb plates coated o/n with a-GST, then blocked with Pierce Superblock). • 7. Incubate for 60 minutes at 30° C. in a shaking incubator • 8. Wash 3× with TBST, add Anti-Phospho MAPK (Sigma) (1:3000) • 9. Incubate for 60 minutes at 30° C. in a shaking incubator • 10. Wash 3× with TBST, add Anti-Mouse Ab/Europium conjugate (Wallac) (1:500) • 11. Incubate for 60 minutes at 30° C. in a shaking incubator • 12. Wash 3× with TBST, Read plates in Wallac Victor model Plate Reader. • 13. Collect data analyze in Excel for single point and IC50 determinations.
# Single point assay—% inhibition at 10 mg/ml (% Inhibition=1—cpd.treated sample/untreated control). IC50 determinations—done on compounds from single point assays with >80% inhibition. Typically, the Raf/Mek assay is run at compound concentrations from 10 μM to 1 nM in half log dilutions. (% inhibition is determined for each compound concentration). Multiple entries for a given compound indicate that it was tested multiple times. The results obtained measure Raf and/or Mek kinase inhibition, and for representative compounds of this invention are listed in Table 4.
# [2] = system: LoVo cells; experiment: Cell based screen for inhibitors of Raf and/or Mek kinase, LoVo; design: species or system human; conditions: Table 4, four days incubation, SRB
# Method: (§1) Cell Based Screen for Inhibitors of Raf and/or Mek Kinase.
# (§2) Cell Lines: Human tumor cell lines LoVo which are known to be growth inhibited by low nM concentrations of a reference standard inhibitor of Ras and human adenocarcinoma cell line CaCo-2, which is known to be growth resistant to the same reference compound.
# (§3) Cell Media: RPMI 1640 with 10% Fetal Bovine Serum supplemented with L-glutamine and Pennicilin/Streptomycin. • Compounds: Supplied usually as a 10 mM stock in 100% DMSO. • Normal Saline: 150 mM NaCl • Trichloroacetic Acid (TCA): 50% (w/v) in water • Sulforhodamine B (SRB): 0.4% (w/v) in 1% Acetic Acid • Tris Base: 10 mM in water Methods
# (§4) Cells are plated at 2000 cells per well for cell line LoVo, 1,750 cells for cell line BXPC3, 1,000 cells for cell line WM266–4 and 1500 cells for cell line CaCo-2 in 96 well plates. Cells are plated in media (200 μl) and allowed to adhere overnight at 37° C. At 24 hours post plating, compounds are added directly at a volume of 0.5 μl. For the qualitative screen (compounds screened at 25 μM) compound is added directly to cells. For the quantitative screen, compound is first diluted in DMSO to generate concentrations of compound or reference standard of: 1, 5, 10 and 25 μM. It is advisable to make the dilutions in an identical 96 well plate so that compounds can be added using a multichannel micropipettor set at 0.5 μl. The cells are then incubated for four days after which the media is removed using a 12 well manifold by first tipping the plate forward at a 45 degree angle and then inserting the manifold in an upright orientation to prevent the tips of the manifold from disturbing cells at the bottom of the plate. 200 μl of normal saline is then added to each well using an 8 well multichannel pipettor, followed by the careful addition of 50 μl of 50% TCA. The plates are then incubated for 2 hours at 4° C., after which the supernatant is removed using the same technique as above and the plated washed twice with 200 μl water. The plates are then air dried and 50 μl of SRB stock solution is carefully added so that the entire bottom of each well is covered. This again can be used using an 8 well multichannel pipettor. The SRB is incubated with fixed cells for 15 minutes at room temperature after which the SRB is removed with the manifold as described above and the plates washed twice with 350 μl of 1% acetic acid per well each time. The plates are then air dried after which the bound SRB is released from protein by the addition of 200 μl of Tris base. Resolubilizing the SRB is aided by placing the plates on a rotator for 15–30 minutes. The absorbance of each well is determined at 550 or 562 nm using a microtiter plate reader.
# (§5) Each compound or dilution thereof is performed in triplicate. Outliers are identified by visual inspection of the data. Each plate should have a “0” control (vehicle only).
# (§6) Quantitative Assay: A standard curve is constructed by plotting the concentration of compound against the average absorbance calculated at that concentration. A curve is plotted and the concentration at which the curve passes through the 50% the absorbance mark seen in the “0” control well is the IC50 calculated for that compound. Multiple entries for a given compound indicate that it was tested multiple times.
# [3] = system: BXPC3 cells; experiment: Cell based screen for inhibitors of Raf and/or Mek kinase, BXPC3; conditions: Homo sapiens, BXPC-3, 96 h; Table 4; four days incubation, SRB
# Method: as §1, §2, §3, §4, §5, §6
# [4] = system: WM266-4 cells; experiment: Cell based screen for inhibitors of Raf and/or Mek kinase, WM266-4; conditions: Table 4, four days incubation, SRB
# Method: as §1, §2, §3, §4, §5, §6
IC50 [1],"IC50 ([2]; Homo sapiens, LoVo, 96 h) [nM]",IC50 [3] [nM],melting point [°C],IC50 [2] [nM],SMILES,"IC50 ([4]; Homo sapiens, WM 266-4, 96 h) [nM]",IC50 [4] [nM]
475 nM,64,92,204 to 207,,"CN(C)CC#Cc1cc2ncc(C#N)c(Nc3ccc(Sc4nccn4C)c(Cl)c3)c2s1 [Example 91, 7-({3-chloro-4-[(1-methyl-1H-imidazol-2-yl)thio]phenyl}amino)-2-[3-(dimethylamino)prop-1-ynyl]thieno[3,2-b]pyridine-6-carbonitrile]",95,85
221 nM and 332 nM,94,350,195 to 200,160,Cn1ccnc1Sc1ccc(Nc2c(C#N)cnc3cc(C#CCCN4CCOCC4)sc23)cc1Cl [Example 86],350,
41 nM,36,> 1000,150 to 152,38,"Cn1ccnc1Sc1ccc(Nc2c(C#N)cnc3cc(-c4ccc(CN5CCOCC5)cc4)sc23)cc1Cl [Example 83, 7-({3-chloro-4-[(1-methyl-1H-imidazol-2-yl)thio]phenyl}amino)-2-[4-(morpholin-4-ylmethyl)phenyl]thieno[3,2-b]pyridine-6-carbonitrile]",> 1000,
5.6 nM,33,38,200 to 203,,"CCN(CC)Cc1ccc(-c2cc3ncc(C#N)c(Nc4ccc(Sc5nccn5C)c(Cl)c4)c3s2)cc1 [Example 98, 7-({3-chloro-4-[(1-methyl-1H-imidazol-2-yl)thio]phenyl}amino)-2-{4-[(diethylamino)methyl]phenyl}thieno[3,2-b]pyridine-6-carbonitrile]",40,
,73,71,190 to 194,,"CCN(CC)CC#Cc1cc2ncc(C#N)c(Nc3ccc(Sc4nccn4C)c(Cl)c3)c2s1 [Example 118, 7-({3-chloro-4-[(1-methyl-1H-imidazol-2-yl)thio]phenyl}amino)-2-[3-(diethylamino)prop-1-ynyl]thieno[3,2-b]pyridine-6-carbonitrile]",,
4.5 nM,39,41,221 to 224,,"CN1CCN(Cc2ccc(-c3cc4ncc(C#N)c(Nc5ccc(Sc6nccn6C)c(Cl)c5)c4s3)cc2)CC1 [Example 99, 7-({3-chloro-4-[(1-methyl-1H-imidazol-2-yl)thio]phenyl}amino)-2-{4-[(4-methylpiperazin-1-yl)methyl]phenyl}thieno[3,2-b]pyridine-6-carbonitrile]",> 1000,
